In patent US9018391B2, “Inhibitors of beta-secretase” (Boehringer Ingelheim International GmbH, priority 2012, dated 2015):

Assays:
[1] = test system: human hematopoetic U937 cell line; test: In Vitro Phospholipidosis Assay (Assay 3), Nile red staining; format: cell-based; conditions: first effect concentration; U937 cells, 48 h; read-out: Phospholipidosis FEC IC50 μM (assay 3)
Procedure: (§1) In Vitro Phospholipidosis Assay (Assay 3)
(§2) The phospholipidogenic potential of test compounds was assayed using the human hematopoetic U937 cell line. The test principle was to analyze the phospholipid content by staining the cells with the fluorescent dye Nile red.
(§3) U937 cells were seeded into cell culture plates at 0.5×10^6 cells/mL in RPMI medium containing 10% FBS, 1% DMSO, and 0.005% gentamicin. The cells were cultivated with or without different concentrations of test compound for 48 h under standard culture conditions.
(§4) For harvesting, the cells were centrifuged at 130×g for 4 min and washed once with PBS. Then, 2×0.5 mL cell suspensions were prepared for non-fixed cell measurement (0.5 mL for propidium iodide (PI) viability measurement and 0.5 mL for Nile red measurement).
(§5) The remaining cells were fixed with 3.7% formaldehyde for 30 min. After a further centrifugation step, cells were resuspended with 1.3 mL Nile red working solution (1 μg/mL) and incubated for 5 min at rt. The cell suspension was washed twice with 3 mL PBS and centrifuged with 130×g for 4 min. The supernatant was discarded and the cells were resuspended with 0.5 mL PBS and kept for flow cytometry measurement.
(§6) For Nile red staining of the 0.5 mL non-fixed cell samples, 50 μL of a ready to use Nile red solution (10 μg/mL) were added per sample. Samples were kept on ice for 5 min. Thereafter, they were washed once with 4 mL PBS (4° C., 250×g for 8 min) and finally resuspended in 400 μL PBS and kept for flow cytometry measurement.
(§7) For the viability measurement, 12.5 μL of the ready to use PI solution (10 μg/mL) were added to the 0.5 mL non-fixed cell suspension. After 15 min of incubation on ice, the samples were measured by flow cytometry using a Coulter Epics XL/MCL flow cytometer.
(§8) The viability of the cells of each sample was determined by flow cytometry measurement of the PI content at channel 2 (568-590 nm). Cut-off gates for the fluorescence-dependent differentiation between live and dead cells were defined based on the analysis of cell culture medium control samples.
(§9) Only samples with a cell viability of >=90% relative to control samples were analyzed for phospholipidosis. Each Nile red sample (non-fixed and fixed samples) was measured by flow cytometry at channel 1 (504-541 nm) and channel 4 (660-680 nm).
(§10) For each channel, relative Nile red fluorescence intensity of a test sample was calculated compared to control samples and expressed as a percentage of control fluorescence intensity. The assessment of the phospholipidogenic potential and the first effective concentration (FEC) of a test compound was done manually based on the fluorescence intensities at both wavelengths for the fixed cells, as well as for the non-fixed cells.

[2] = test system: Human Hepatocytes; test: In Vitro Hepatocyte Stability Assay (Assay 4); format: in vitro ADME; conditions: predicted blood clearance as percent of hepatic blood flow
Procedure: In Vitro Hepatocyte Stability Assay (Assay 4)
The metabolic degradation of test compounds was assayed in a hepatocyte suspension. Cryopreserved hepatocytes were incubated in an appropriate buffer system (e.g., Dulbecco's modified eagle medium plus 3.5 μg glucagon/500 mL, 2.5 mg insulin/500 mL and 3.75 mg/500 mL hydrocortison) containing 5% species serum. Following a 30 min preincubation in an incubator (37° C., 10% CO2), 5 μl of test compound solution (80 μM; from 2 mM in DMSO stock solution diluted 1:25 with medium) were added into 395 μl hepatocyte suspension (cell density in the range 0.25−5×10^6 cells/mL, typically 1×10^6 cells/mL; final concentration of test compound final DMSO concentration […]).
The cells were incubated for six h (incubator, orbital shaker) and samples (25 μl) were taken at 0, 0.5, 1, 2, 4 and 6 h. Samples were transferred into acetonitrile and pelleted by centrifugation (5 min). The supernatant was transferred to a new 96 DeepWell™ plate, evaporated under nitrogen and resuspended. Decline of compound was analyzed by HPLC-MS/MS. CLint (in vitro hepatic intrinsic clearance) was calculated as follows: CLint=Dose/AUC=(C0/CD)/(AUD+Clast/k)×1000/60
C0: initial concentration in the incubation [μM];
CD: cell density of vital cells [cells/mL];
AUD: area under the data [μM×h];
Clast: concentration of last data point [μM];
k: slope of the regression line for compound decline [h^−1].
The calculated in vitro hepatic intrinsic clearance was scaled up to the intrinsic in vivo hepatic clearance (Clint in vivo) and used to predict hepatic in vivo blood clearance (CL) by the use of a liver model (well-stirred model), as follows: CLint,in vivo[mL/min/kg]=(CLint[μL/min/10^6 cells]×hepatocellularity[10^6 cells/g liver]×liver factor [g/kg body weight])/1000 CL[mL/min/kg]=CLint,to vivo×hepatic blood flow[ml/min/kg]/(CLint,in vivo[ml/min/kg]+hepatic blood flow[mL/min/kg])
The in vivo blood clearance was transformed into percent of the hepatic blood flow (% Qh): % Qh=CL[mL/min/kg]/hepatic blood flow[mL/min/kg])×100
Hepatocellularity, human: 1.2×10^7 cells/g liver;
Liver factor, human: 25.7 g/kg body weight;
Hepatic blood flow, human: 21 mL/(min×kg).

[3] = target: hERG channel (Homo sapiens (Human), UniProt Q12809); test: hERG-Channel Assay (Assay 2), whole-cell patch clamp in HEK293 cells stably transfected with hERG cDNA; format: cell-based; conditions: for % Inhibition hERG @ 10 μM (assay 2): 35° C.; for inhibition at 10 µM: human, HEK293 cells stably transfected with hERG cDNA, pH 7.4, 35° C.
Excerpt: hERG-Channel Assay (Assay 2)
Cells: HEK (human embryonic kidney) 293 cells were stably transfected with hERG cDNA.
Cells were superfused with a bath solution containing (mM): NaCl (137), KCl (4.0), MgCl2 (1.0), CaCl2 (1.8), Glucose (10), HEPES (10), pH 7.4 with NaOH. Patch pipettes were made from borosilicate glass tubing using a horizontal puller and filled with pipette solution containing (mM): K-aspartate (130), MgCl2 (5.0), EGTA (5.0), K2ATP (4.0), HEPES (10.0), pH 7.2 with KOH. Resistance of the microelectrodes was in the range between 2 and 5 MΩ.
Stimulation and Recording:
Membrane currents were recorded using an EPC-10 patch clamp amplifier and PatchMaster software. hERG-mediated membrane currents were recorded at 35° C., using the whole-cell configuration of the patch-clamp technique. Transfected HEK293 cells were clamped at a holding potential of −60 mV and hERG-mediated inactivating tail currents were elicited using a pulse pattern with fixed amplitudes (activation/inactivation: 40 mV for 2000 ms; recovery: −120 mV for 2 ms; ramp to 40 mV in 2 ms; inactivating tail current: 40 mV for 50 ms) repeated at 15 s intervals. During each inter-pulse interval, 4 pulses scaled down by a factor of 0.2 were recorded for a P/n leak subtraction procedure. Rs compensation was employed up to a level that safely allowed recording devoid of ringing.
Compound Preparation and Application:
The different concentrations of the test compounds were applied sequentially on each of the different cells investigated. A steady state level of baseline current was measured for at least 6 sweeps prior to the application of the first test compound concentration.
The test compound was dissolved in DMSO to yield a master stock solution which was diluted further in DMSO to stock solutions needed for the lower concentrations. Final dilutions in extracellular buffer were prepared freshly from these stocks by a 1:1000 dilution step each before starting the experiments.
Peak current amplitudes were measured 3 ms after the ramp to +40 mV. For baseline and each concentration, the peak currents of the three last sweeps before application of the next concentration were averaged. Residual currents (I/I0) were calculated for each cell as the fraction of actual average peak current and average baseline peak current.

[4] = In Vitro Phospholipidosis Assay (Assay 3), Nile red staining; format: cell-based, human; conditions: human, first effect concentration, U937 cells, read-out: Phospholipidosis FEC IC50 μM (assay 3)
Procedure: as §1, §2, §3, §4, §5, §6, §7, §8, §9, §10

[5] = target: truncated human beta-secretase, BACE1 (amino acids 1-454) (Homo sapiens (Human), UniProt P56817); test: BACE1 Assay (Assay 1), fluorescence quench assay; format: biochemical; conditions: pH 4.4
Procedure: The substrate was dissolved at 1 mg/ml in DMSO.
The assay was performed in the presence of OptiMEM™ (supernatant collected over 24 h and cleared from cellular debris by centrifugation) containing the ectodomain of BACE1, 25 μl water containing the desired 2-fold concentration of test compound and 2% DMSO, 1 μM substrate peptide, 20 mM NaOAc, pH 4.4, and 0.04% Triton-X100 in a total assay volume of 50 μl in a 384 well plate. In general, 25 μl of compound dilution were added to the plate followed by the addition of 10 μl of BACE1 containing OptiMEM™ diluted 1:10 in water with 0.2% Triton X-100. The reaction was started with the addition of 15 μl substrate in NaOAc buffer. The reaction was incubated at rt (dark) in an Envision® multilabel reader (Perkin Elmer) and the cleavage of the substrate was recorded as kinetic for […] at ex: 485 nm, em: 538 nm. Blank wells containing no enzyme were included on each plate.
The intensity of fluorescence was regressed against time in order to derive velocities of reaction in all 384 wells. These velocities were used for calculating percent control using an uninhibited control containing 1% DMSO as 100% and a blank control performed in the absence of enzyme as 0%. IC50 values were calculated by fitting percent control vs. test compound concentration using Assay Explorer®.

hERG channel, sequence (Q12809 whole entry): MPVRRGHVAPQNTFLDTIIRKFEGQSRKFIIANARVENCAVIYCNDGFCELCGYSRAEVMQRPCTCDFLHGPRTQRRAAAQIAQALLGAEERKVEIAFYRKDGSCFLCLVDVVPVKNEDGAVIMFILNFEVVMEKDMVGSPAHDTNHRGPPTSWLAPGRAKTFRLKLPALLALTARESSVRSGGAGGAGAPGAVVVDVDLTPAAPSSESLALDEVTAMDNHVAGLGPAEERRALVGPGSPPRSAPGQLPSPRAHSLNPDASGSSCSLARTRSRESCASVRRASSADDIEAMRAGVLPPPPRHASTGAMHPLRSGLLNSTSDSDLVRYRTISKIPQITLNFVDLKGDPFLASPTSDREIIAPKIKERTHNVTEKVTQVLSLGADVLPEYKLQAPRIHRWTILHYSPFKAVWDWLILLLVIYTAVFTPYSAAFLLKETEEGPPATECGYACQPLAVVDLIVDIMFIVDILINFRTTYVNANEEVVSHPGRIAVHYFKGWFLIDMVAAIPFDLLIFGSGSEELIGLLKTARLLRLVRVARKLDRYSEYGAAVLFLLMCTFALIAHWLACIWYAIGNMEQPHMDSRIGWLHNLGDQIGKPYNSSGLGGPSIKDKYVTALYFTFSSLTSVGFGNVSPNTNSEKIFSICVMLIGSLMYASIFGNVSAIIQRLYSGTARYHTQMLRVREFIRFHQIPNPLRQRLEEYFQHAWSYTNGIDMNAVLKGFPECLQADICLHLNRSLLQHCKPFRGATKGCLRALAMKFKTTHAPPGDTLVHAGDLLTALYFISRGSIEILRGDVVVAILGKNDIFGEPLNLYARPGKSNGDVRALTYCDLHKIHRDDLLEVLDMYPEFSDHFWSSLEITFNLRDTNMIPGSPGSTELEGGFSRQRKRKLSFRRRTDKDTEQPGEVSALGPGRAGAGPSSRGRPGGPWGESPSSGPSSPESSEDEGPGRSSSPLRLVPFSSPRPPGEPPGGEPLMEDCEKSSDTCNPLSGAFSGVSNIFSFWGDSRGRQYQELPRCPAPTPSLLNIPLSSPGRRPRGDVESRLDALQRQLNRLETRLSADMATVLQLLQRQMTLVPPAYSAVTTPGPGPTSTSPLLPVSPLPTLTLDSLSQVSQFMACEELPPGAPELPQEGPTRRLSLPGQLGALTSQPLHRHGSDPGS
truncated human beta-secretase, BACE1 (amino acids 1-454), sequence (P56817 22-454): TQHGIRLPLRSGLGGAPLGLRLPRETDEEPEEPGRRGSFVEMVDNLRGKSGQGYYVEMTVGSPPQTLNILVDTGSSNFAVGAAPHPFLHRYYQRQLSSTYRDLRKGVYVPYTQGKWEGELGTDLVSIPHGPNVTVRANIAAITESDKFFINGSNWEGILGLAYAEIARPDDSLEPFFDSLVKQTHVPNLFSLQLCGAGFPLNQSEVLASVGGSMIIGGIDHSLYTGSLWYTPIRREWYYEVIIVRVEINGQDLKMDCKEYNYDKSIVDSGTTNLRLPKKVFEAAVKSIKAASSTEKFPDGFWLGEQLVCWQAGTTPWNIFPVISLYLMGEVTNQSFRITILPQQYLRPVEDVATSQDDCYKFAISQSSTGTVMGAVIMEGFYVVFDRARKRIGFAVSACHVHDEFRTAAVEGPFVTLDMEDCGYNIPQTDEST

Row | Structure (SMILES) | IC50 [1] [µM] | In vitro Human Hepatocytes % Qh @ 1 μM (assay 4) [2] [% Qh] | % Inhibition hERG @ 10 μM (assay 2) [3] [%] | IC50 at 48 h [4] [µM] | IC50 [5] [nM] | inhibition at 10 µM [3] [%]
1 | COC1CCC2(CC1)Cc1ccc(C#N)cc1[C@]21N=C(N)N(C)C1=O (stereo partly drawn) [drawing 15, reference compound] | 400 | 14 | 90 |  |  | 
2 | CC[C@@H]1C[C@@]2(Cc3ccc(C#N)cc3[C@]23N=C(N)N(C[C@H]2COCCO2)C3=O)C[C@H](C)[C@H]1O [Example 8] |  | 19.1 |  | 800 | 1.9 | 6
3 | C[C@@H]1C[C@@]2(Cc3ccc(-c4cncnc4)cc3[C@]23N=C(N)N(CC(C)(C)F)C3=O)C[C@H](C)[C@H]1O [Example 5] |  | 6.1 |  | 400 | 2.6 | 12
4 | C[C@H]1C[C@@]2(CC[C@@H]1O)Cc1ccc(-c3cccnc3)cc1[C@]21N=C(N)N(Cc2ncccn2)C1=O [Example 12] |  | 0 |  | 100 | 6.8 | 15
5 | COC1CCC2(CC1)Cc1ccc(C#N)cc1[C@]21N=C(N)N(C)C1=O (stereo partly drawn) [drawing 18, reference compound] | 400 | 14 | 90 |  |  | 
